The target of test [1] is T1, Adenosine A2 receptor (Rattus norvegicus, UniProt P29276+P30543).
Description: Inhibition of binding of [3H]5'-(N-ethylcarbamoyl)-adenosine to adenosine A2 receptor in rat striatal membranes
Test [2] concerns the target T1, Adenosine A2 receptor. It is filed as cell membranes, Membrane.
In test [3] the target is Adenosine receptors; A1 & A2 (Rattus norvegicus) (UniProt P29276+P25099+P30543). As to the kind of experiment: Inhibitory selectivity for A2 receptor in rat striatal membranes and A1 receptor in rat cortical membranes. Particulars: Striatum, Membrane. Type of test: cell membranes.
Test [4] deals with T2, Adenosine receptor A1 (Rattus norvegicus, UniProt P25099).
T2 sequence (P25099 whole entry): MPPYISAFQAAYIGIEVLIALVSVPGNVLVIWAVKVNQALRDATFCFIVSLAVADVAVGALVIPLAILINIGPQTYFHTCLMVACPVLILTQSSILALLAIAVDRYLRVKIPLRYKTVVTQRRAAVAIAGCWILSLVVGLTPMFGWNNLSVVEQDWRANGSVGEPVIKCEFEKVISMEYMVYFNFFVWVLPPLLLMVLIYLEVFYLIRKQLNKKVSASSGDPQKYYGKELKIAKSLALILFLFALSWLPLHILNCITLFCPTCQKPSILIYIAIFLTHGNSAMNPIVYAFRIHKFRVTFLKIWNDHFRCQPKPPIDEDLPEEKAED
Nature of the test: Inhibition of 1 nM [3H]N-6-(phenylisopropyl)adenosine binding to adenosine A1 receptors in rat cortical membranes. Type of test: cell membranes, Membrane.

For test [5], the target named is T2, Adenosine receptor A1. Nature of the test: Inhibition of binding of 1 nM [3H]N-6-(phenylisopropyl)adenosine to adenosine A1 receptor in rat cortical membranes. Type of test: cell membranes, Membrane.
Test [6] deals with Adenosine receptor A1 (Rattus norvegicus). As to the kind of experiment: Inhibitory selectivity for A1 receptor in rat striatal membranes and Adenosine A1 receptor in rat cortical membranes.
In test [7] the target is T2, Adenosine receptor A1. Nature of the test: Inhibition of 1 nM [3H]N-6-(phenylisopropyl)adenosine binding to A1 receptors in rat cortical membranes. It is filed as cell membranes, Membrane.
For test [8], the target named is Adenosine receptors; A1 & A2 (Rattus norvegicus, UniProt P29276+P25099+P30543). Nature of the test: Inhibitory selectivity for A1 receptor in rat striatal membranes and Adenosine A1 receptor in rat cortical membranes. Type of test: cell membranes, Striatum, Membrane.

Where only a bound is given, the exact number is not on record here.

By Ki is commonly meant the dissociation constant of the complex between target and ligand, obtained from inhibition or displacement. Read a low Ki as a stronger hold on the target. At Adenosine A2 receptor [1], `CCCn1c(=S)c2nc(C3CCCC3)[nH]c2n(CCC)c1=O` came in with an inhibitory constant (Ki) of 3360 nM.

With `Cn1c(=O)c2nc(C3CCCC3)[nH]c2n(C)c1=S`, the inhibition constant (Ki) was 1390 nM on Adenosine A2 receptor [2] and 10.2 nM on Adenosine receptor A1 [4]. Further, the Ratio in test [3] was found to be 136.

`Cn1c(=O)c2nc(-c3ccsc3)[nH]c2n(C)c1=O` returned a Ki on Adenosine A2 receptor [1] of 841 nM.

The compound `CCCn1c(=S)c2nc(C3CCCC3)[nH]c2n(CCC)c1=S` gave a Ki on Adenosine A2 receptor [2] of 2780 nM. Moreover, the Ratio in test [3] was 572.

For the compound `Cn1c(=S)c2nc(C3CCCC3)[nH]c2n(C)c1=O`, the Ki at Adenosine A2 receptor [2] is reported as 8980 nM. Also, the Ratio in test [3] is 44.4.

For `Cn1c(=O)c2nc(-c3ccco3)[nH]c2n(C)c1=O`, the values for the Ki on Adenosine A2 receptor [1] and on Adenosine receptor A1 [5] were 2780 nM and 350 nM, respectively.

On to `CCCn1c(=O)c2nc(-c3ccc(OCC(=O)N(C)CCN(C)C)cc3)[nH]c2n(CCC)c1=S`, for which, on Adenosine A2 receptor [1], the Ki was determined as 24.5 nM.

Take `CCCn1c(=O)c2nc(-c3ccc(OCC(=O)OCC)cc3)[nH]c2n(CCC)c1=O`: the Ki on Adenosine A2 receptor [1] was greater than 5000 nM.

For `CCCn1c(=O)c2nc(-c3ccc(OCC(=O)NCCN)cc3)[nH]c2n(CCC)c1=S`, the Ki at Adenosine A2 receptor [1] is 26.3 nM. This lies in the double-digit nanomolar range.

For `Br.Br.CCCn1c(=O)c2nc(-c3ccc(OCC(=O)NCCNC(=O)C(N)CCCCN)cc3)[nH]c2n(CCC)c1=S` (stereo not drawn), the Ki on Adenosine A2 receptor [1] was 46.8 nM; at Adenosine receptor A1 [5], 13 nM.

For the compound `CCCn1c(=O)c2nc(-c3ccc(OCC(=O)NCCNC(=O)CCCCCCC(=O)ON4C(=O)CCC4=O)cc3)[nH]c2n(CCC)c1=S`, the Ki in test [6] is 33.5 nM.

Take `CCCn1c(=O)c2nc(-c3ccco3)[nH]c2n(CCC)c1=O`: the results for the Ki on Adenosine A2 receptor [1] and at Adenosine receptor A1 [5] were 640 nM and 37 nM, respectively.

Regarding `Cn1c(=O)c2nc(-c3ccoc3)[nH]c2n(C)c1=O`, the Ki at Adenosine A2 receptor [1] came to 984 nM; at Adenosine receptor A1 [5] it was 72.4 nM.

Consider `CCCn1c(=O)c2nc(-c3ccccc3)[nH]c2n(CCC)c1=S`, for which the Ki at Adenosine A2 receptor [1] was found to be 422 nM; at Adenosine receptor A1 [5], 16.1 nM.

In the case of `Cn1c(=O)c2nc(-c3cccs3)[nH]c2n(C)c1=O`, the inhibition constant Ki on Adenosine A2 receptor [1] amounted to 1630 nM.

`CCCn1c(=O)c2[nH]c(C3CCCC3)nc2n(CCC)c1=S` came in with a Ki at Adenosine A2 receptor [1] of 314 nM. This Ki lies about 5.2-fold lower than the previous one.

As for `CCCn1c(=O)c2nc(-c3ccc(OCC(=O)NCCNC(=O)C(N)CCCCNC(=O)OCc4ccccc4)cc3)[nH]c2n(CCC)c1=S.O=C(O)C(F)(F)F` (stereo not drawn), the Ki at Adenosine A2 receptor [2] was found to be 322 nM; at Adenosine receptor A1 [4] it was 6.8 nM. Besides, the Ratio in test [3] was determined as 36.

Turning to `CCCn1c(=O)c2[nH]c(-c3ccc(OCC(=O)NCCNC(=O)[C@@H](Cc4cccs4)NC(=O)OC(C)(C)C)cc3)nc2n(CCC)c1=O`, at Adenosine receptor A1 [7], the inhibitory constant (Ki) turned out to be 17 nM.

Regarding `CCCn1c(=O)c2nc(-c3ccco3)[nH]c2n(CCC)c1=S`, the Ki at Adenosine A2 receptor [1] worked out at 594 nM; on Adenosine receptor A1 [5] it was 32 nM.

`CCCn1c(=O)c2nc(-c3ccc(OCC(=O)O)cc3)[nH]c2n(CCC)c1=S` yielded a Ki on Adenosine A2 receptor [1] of 315 nM.

`Cn1c(=O)c2nc(-c3ccccc3)[nH]c2n(C)c1=S`: the Ki is greater than 7000 nM at Adenosine A2 receptor [1] and 38 nM at Adenosine receptor A1 [5].

Consider `CCCn1c(=O)c2nc(-c3ccc(OCC(=O)NCCNC(=O)C(CCCCNC(=O)OCc4ccccc4)NC(=O)OC(C)(C)C)cc3)[nH]c2n(CCC)c1=S` (stereo not drawn), for which the values for the Ki on Adenosine A2 receptor [1] and on Adenosine receptor A1 [5] were 870 nM and 84 nM, respectively.

For `CCCn1c(=O)c2nc(-c3ccsc3)[nH]c2n(CCC)c1=O`, the Ki on Adenosine A2 receptor [1] is recorded as 121 nM.

In the case of `CCn1c(=S)c2nc(-c3ccccc3)[nH]c2n(CC)c1=O`, the Ki on Adenosine A2 receptor [1] is 3510 nM.

In turn, `CCCn1c(=O)c2nc(-c3cccs3)[nH]c2n(CCC)c1=S` yielded a Ki on Adenosine A2 receptor [1] greater than 5000 nM.

As for `CCCn1c(=O)c2nc(-c3ccc(OCC(=O)OCC)cc3)[nH]c2n(CCC)c1=S`, the Ki at Adenosine A2 receptor [1] was greater than 5000 nM.

Take `CCCn1c(=O)c2[nH]c(-c3ccc(OCC(=O)NCCNC(=O)C(CCCCNC(=O)OCc4ccccc4)NC(=O)OC(C)(C)C)cc3)nc2n(CCC)c1=O` (stereo not drawn): the inhibitory constant (Ki) on Adenosine receptor A1 [7] was 12 nM. This lies in the double-digit nanomolar range.

In the case of `CCCn1c(=O)c2[nH]c(-c3ccc(OCC(=O)NCCNC)cc3)nc2n(CCC)c1=O`, on Adenosine receptor A1 [5], the Ki was 15.1 nM.

Take `CCCn1c(=O)c2nc(-c3ccc(OCC(=O)NCCNC(=O)C(N)CCCCNC(=O)OCc4ccccc4)cc3)[nH]c2n(CCC)c1=O.O=C(O)C(F)(F)F` (stereo not drawn): the figures for the Ki at Adenosine A2 receptor [2] and at Adenosine receptor A1 [4] were 191 nM and 6.4 nM, respectively. Also, the Ratio in test [3] came out at 30.

As for `CCCn1c(=O)c2nc(-c3ccc(OCC(=O)NCCNC(=O)Cc4cccs4)cc3)[nH]c2n(CCC)c1=O`, the Ki at Adenosine A2 receptor [1] stood at 147 nM.

On Adenosine A2 receptor [1], `CCCn1c(=O)c2nc(-c3ccc(OCC(=O)NCCN(C)C)cc3)[nH]c2n(CCC)c1=S` registered a Ki of 27.9 nM.

Turning to `CCCn1c(=O)c2nc(-c3ccc(OCC(=O)NCCNC(=O)C(N)Cc4cccs4)cc3)[nH]c2n(CCC)c1=O.O=C(O)C(F)(F)F` (stereo not drawn), the Ki in test [8] is 1.3 nM.

The compound `Cn1c(=S)c2nc(C3CCCC3)[nH]c2n(C)c1=S` registered a Ki at Adenosine A2 receptor [2] of 11500 nM. The Ratio in test [3] stood at 285.

The compound `Cn1c(=S)c2nc(-c3ccccc3)[nH]c2n(C)c1=O` came in with a Ki at Adenosine A2 receptor [1] of 11300 nM.

On to `Cn1c(=O)c2nc(-c3ccco3)[nH]c2n(C)c1=S`, for which the Ki at Adenosine A2 receptor [1] was determined as 4450 nM; at Adenosine receptor A1 [5], 182 nM.

On to `CCCn1c(=O)c2nc(-c3cccs3)[nH]c2n(CCC)c1=O`, for which, on Adenosine A2 receptor [1], the Ki stood at 381 nM.

Turning to `CCCn1c(=O)c2nc(-c3ccc(OCC(=O)NCCN(C)C)cc3)[nH]c2n(CCC)c1=O`, the Ki at Adenosine A2 receptor [1] amounted to 5.03 nM; at Adenosine receptor A1 [5], 2.8 nM.

Turning to `Br.Br.CCCn1c(=O)c2nc(-c3ccc(OCC(=O)NCCNC(=O)C(N)CCCCN)cc3)[nH]c2n(CCC)c1=O` (stereo not drawn), the results for the Ki at Adenosine A2 receptor [1] and on Adenosine receptor A1 [5] were 180 nM and 0.87 nM, respectively.

At Adenosine A2 receptor [1], `Cn1c(=O)c2nc(-c3cccs3)[nH]c2n(C)c1=S` gave an inhibition constant Ki of 1740 nM.

Turning to `CCCn1c(=O)c2nc(-c3ccc(OCC(=O)NCCNC(=O)Cc4ccc(I)s4)cc3)[nH]c2n(CCC)c1=O`, the inhibitory constant (Ki) at Adenosine A2 receptor [2] came to 116 nM. Moreover, the Ratio in test [3] was determined as 10.3.

As to `CCCn1c(=O)c2nc(-c3ccc(OCC(=O)NCCNC(=O)CCCCCCC(=O)NCc4cccs4)cc3)[nH]c2n(CCC)c1=O`, the Ki on Adenosine A2 receptor [2] worked out at 630 nM. Further, the Ratio in test [3] is 85.

Source of the values: ChEMBL document CHEMBL1124646, “Sulfur-containing 1,3-dialkylxanthine derivatives as selective antagonists at A1-adenosine receptors” (J Med Chem, 1989).
